Assay results taken from ChEMBL document CHEMBL4433269, “Design, synthesis and evaluation of biphenyl imidazole analogues as potent antifungal agents” (Bioorg Med Chem Lett, 2019).

What was measured:
Candida tropicalis = experiment: Antifungal activity against Candida tropicalis cgmcc 2.3739 assessed as inhibition of visible microbe growth by broth microdilution method; type: functional
Aspergillus fumigatus = experiment: Antifungal activity against Aspergillus fumigatus cgmcc 3.7795 assessed as inhibition of visible microbe growth by broth microdilution method; type: functional
Cryptococcus neoformans = experiment: Antifungal activity against Cryptococcus neoformans cgmcc 2.3161 assessed as inhibition of visible microbe growth by broth microdilution method; type: functional
Candida albicans [1] = experiment: Antifungal activity against Candida albicans ATCC SC5314 assessed as inhibition of visible microbe growth by broth microdilution method; type: functional
Candida albicans [2] = experiment: Antifungal activity against Candida albicans CPCC 400523 assessed as inhibition of visible microbe growth by broth microdilution method; type: functional
Candida albicans [3] = experiment: Antifungal activity against fluconazole-resistant Candida albicans 100 assessed as inhibition of visible microbe growth by broth microdilution method; type: functional
Candida albicans [4] = experiment: Antifungal activity against fluconazole-resistant Candida albicans 103 assessed as inhibition of visible microbe growth by broth microdilution method; type: functional
Cytochrome P450 2C19 = Cytochrome P450 2C19 (Homo sapiens, UniProt P33261); experiment: Inhibition of CYP2C19 in human liver microsomes using S-mephenytoin pre-incubated for 10 mins before NADPH addition and measured after 10 mins by LC/MS/MS analysis; type: ADME
Cytochrome P450 2D6 = Cytochrome P450 2D6 (Homo sapiens, UniProt P10635); experiment: Inhibition of CYP2D6 in human liver microsomes using dextromethorphan pre-incubated for 10 mins before NADPH addition and measured after 10 mins by LC/MS/MS analysis; type: ADME
Cytochrome P450 1A2 = target: T1, Cytochrome P450 1A2 (Homo sapiens, UniProt P05177); experiment: Inhibition of CYP1A2 in human liver microsomes using phenacetin pre-incubated for 10 mins before NADPH addition and measured after 10 mins by LC/MS/MS analysis; type: ADME
T1 sequence (P05177 whole entry): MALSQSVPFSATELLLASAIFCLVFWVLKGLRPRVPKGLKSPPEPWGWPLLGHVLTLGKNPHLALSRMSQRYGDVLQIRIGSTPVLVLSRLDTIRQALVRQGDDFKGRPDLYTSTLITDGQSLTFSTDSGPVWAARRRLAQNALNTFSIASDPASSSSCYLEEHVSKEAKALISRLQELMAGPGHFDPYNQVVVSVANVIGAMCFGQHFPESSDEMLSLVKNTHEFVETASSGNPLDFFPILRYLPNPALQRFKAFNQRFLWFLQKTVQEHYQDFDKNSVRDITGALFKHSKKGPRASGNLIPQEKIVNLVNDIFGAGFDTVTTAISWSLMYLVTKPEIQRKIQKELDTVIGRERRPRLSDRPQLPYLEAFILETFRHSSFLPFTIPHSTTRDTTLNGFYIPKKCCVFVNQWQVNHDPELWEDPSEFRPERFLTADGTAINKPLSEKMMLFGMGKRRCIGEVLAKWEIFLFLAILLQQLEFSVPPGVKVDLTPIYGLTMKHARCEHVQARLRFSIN

Cytochrome P450 2C9 = Cytochrome P450 2C9 (Homo sapiens, UniProt P11712); experiment: Inhibition of CYP2C9 in human liver microsomes using diclofenac pre-incubated for 10 mins before NADPH addition and measured after 10 mins by LC/MS/MS analysis; type: ADME
Cytochrome P450 3A4 = Cytochrome P450 3A4 (Homo sapiens, UniProt P08684); experiment: Inhibition of CYP3A4 in human liver microsomes using midazolam pre-incubated for 10 mins before NADPH addition and measured after 10 mins by LC/MS/MS analysis; type: ADME
U-87 MG = experiment: Cytotoxicity in human U87 cells assessed as reduction in cell viability incubated for 24 hrs by MTT assay; type: cell-based, U-87MG ATCC
A549 = experiment: Cytotoxicity in human A549 cells assessed as reduction in cell viability incubated for 24 hrs by MTT assay; type: cell-based; details: A549, 24 h

Cytochrome P450 2D6, sequence (P10635 whole entry): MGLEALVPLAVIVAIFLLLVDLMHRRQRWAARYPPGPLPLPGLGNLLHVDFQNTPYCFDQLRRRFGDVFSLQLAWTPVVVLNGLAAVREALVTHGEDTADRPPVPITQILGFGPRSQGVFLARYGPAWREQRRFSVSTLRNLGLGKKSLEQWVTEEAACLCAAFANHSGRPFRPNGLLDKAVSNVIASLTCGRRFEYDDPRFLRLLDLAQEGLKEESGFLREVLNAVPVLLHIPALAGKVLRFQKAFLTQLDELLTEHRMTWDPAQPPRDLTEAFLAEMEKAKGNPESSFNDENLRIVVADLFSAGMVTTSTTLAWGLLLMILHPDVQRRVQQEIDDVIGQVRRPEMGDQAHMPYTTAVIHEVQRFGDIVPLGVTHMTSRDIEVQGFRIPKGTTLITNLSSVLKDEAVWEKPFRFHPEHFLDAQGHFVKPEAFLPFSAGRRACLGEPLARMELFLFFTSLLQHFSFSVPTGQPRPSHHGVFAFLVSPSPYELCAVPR
Cytochrome P450 3A4, sequence (P08684 whole entry): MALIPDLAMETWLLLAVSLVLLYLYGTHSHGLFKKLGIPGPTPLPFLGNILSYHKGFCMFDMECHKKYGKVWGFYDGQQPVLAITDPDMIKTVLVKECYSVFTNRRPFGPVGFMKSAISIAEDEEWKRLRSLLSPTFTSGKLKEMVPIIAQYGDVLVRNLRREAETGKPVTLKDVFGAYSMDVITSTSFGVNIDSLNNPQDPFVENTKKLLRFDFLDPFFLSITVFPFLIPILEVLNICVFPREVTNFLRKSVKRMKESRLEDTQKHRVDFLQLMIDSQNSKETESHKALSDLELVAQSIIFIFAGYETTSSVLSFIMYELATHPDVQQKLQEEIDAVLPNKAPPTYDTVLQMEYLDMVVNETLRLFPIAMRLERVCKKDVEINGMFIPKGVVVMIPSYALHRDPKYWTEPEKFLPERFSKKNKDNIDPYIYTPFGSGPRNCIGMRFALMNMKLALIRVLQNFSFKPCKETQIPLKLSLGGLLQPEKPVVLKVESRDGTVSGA
Cytochrome P450 2C19, sequence (P33261 whole entry): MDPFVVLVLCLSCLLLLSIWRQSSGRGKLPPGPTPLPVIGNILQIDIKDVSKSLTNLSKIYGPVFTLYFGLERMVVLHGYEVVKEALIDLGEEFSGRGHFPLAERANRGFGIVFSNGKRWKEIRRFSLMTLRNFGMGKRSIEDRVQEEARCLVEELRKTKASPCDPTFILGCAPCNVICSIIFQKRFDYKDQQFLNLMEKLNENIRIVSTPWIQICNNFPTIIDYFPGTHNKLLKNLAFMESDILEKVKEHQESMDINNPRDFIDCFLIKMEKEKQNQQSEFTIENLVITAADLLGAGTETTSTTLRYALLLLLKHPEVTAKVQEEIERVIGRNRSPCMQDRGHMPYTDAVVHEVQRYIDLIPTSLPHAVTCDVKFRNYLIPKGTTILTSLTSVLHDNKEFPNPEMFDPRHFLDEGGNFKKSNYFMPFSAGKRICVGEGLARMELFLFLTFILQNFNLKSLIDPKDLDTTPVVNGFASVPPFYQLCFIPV
Cytochrome P450 2C9, sequence (P11712 whole entry): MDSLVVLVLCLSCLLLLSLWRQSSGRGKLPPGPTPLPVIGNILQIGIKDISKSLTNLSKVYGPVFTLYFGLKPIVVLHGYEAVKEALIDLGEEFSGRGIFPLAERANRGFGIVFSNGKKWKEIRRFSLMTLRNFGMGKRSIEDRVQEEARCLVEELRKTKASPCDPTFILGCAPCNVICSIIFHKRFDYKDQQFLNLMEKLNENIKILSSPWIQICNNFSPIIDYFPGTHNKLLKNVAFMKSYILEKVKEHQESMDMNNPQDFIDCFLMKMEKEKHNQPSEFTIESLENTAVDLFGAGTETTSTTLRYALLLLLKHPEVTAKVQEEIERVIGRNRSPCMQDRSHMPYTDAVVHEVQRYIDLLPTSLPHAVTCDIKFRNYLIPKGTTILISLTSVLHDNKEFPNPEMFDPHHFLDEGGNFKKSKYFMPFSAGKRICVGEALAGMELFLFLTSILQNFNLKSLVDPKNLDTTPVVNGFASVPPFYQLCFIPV

| SMILES | MIC (Candida tropicalis) | MIC (Aspergillus fumigatus) | MIC (Cryptococcus neoformans) | MIC (Candida albicans [1]) | MIC (Candida albicans [2]) | MIC (Candida albicans [3]) | MIC (Candida albicans [4]) | IC50 (Cytochrome P450 2C19) | IC50 (Cytochrome P450 2D6) | IC50 (Cytochrome P450 1A2) | IC50 (Cytochrome P450 2C9) | IC50 (Cytochrome P450 3A4) | IC50 (U-87 MG) | IC50 (A549) |
| --- | --- | --- | --- | --- | --- | --- | --- | --- | --- | --- | --- | --- | --- | --- |
| CC(C)OC(=O)[C@H](Cn1ccnc1)NC(=O)c1ccc(-c2ccccc2F)cc1F | 0.25 µg/mL | > 16 µg/mL | > 16 µg/mL | 0.5 µg/mL | 0.125 µg/mL |  |  |  |  |  |  |  |  |  |
| CC(C)COC(=O)[C@H](Cn1ccnc1)NC(=O)c1ccc(-c2ccccc2)cc1F | 0.0312 µg/mL | 8 µg/mL | > 16 µg/mL | 0.25 µg/mL | 0.0312 µg/mL |  |  |  |  |  |  |  |  |  |
| CCC(C)n1ncn(-c2ccc(N3CCN(c4ccc(OCC5COC(Cn6cncn6)(c6ccc(Cl)cc6Cl)O5)cc4)CC3)cc2)c1=O (centres undefined) [ITRACONAZOLE] | 0.5 µg/mL | 4 µg/mL | 1 µg/mL | 0.0625 µg/mL | 0.25 µg/mL |  |  |  |  |  |  |  |  |  |
| CC(C)COC(=O)[C@H](Cn1ccnc1)NC(=O)c1ccc(-c2ccccc2)c(Cl)c1 | 0.25 µg/mL | > 16 µg/mL | 8 µg/mL | 4 µg/mL | 8 µg/mL |  |  |  |  |  |  |  |  |  |
| CC(C)OC(=O)[C@H](Cn1ccnc1)NC(=O)c1ccc(-c2ccccc2F)c(F)c1 | 0.0312 µg/mL | > 16 µg/mL | 8 µg/mL | 0.0625 µg/mL | 0.0312 µg/mL | 16 µg/mL | 2 µg/mL |  |  |  |  |  |  |  |
| COc1cc(-c2ccccc2)ccc1C(=O)N[C@@H](Cn1ccnc1)C(=O)OCC(C)C | 2 µg/mL | > 16 µg/mL | > 16 µg/mL | > 16 µg/mL | 4 µg/mL |  |  |  |  |  |  |  |  |  |
| COc1cc(-c2ccccc2)ccc1C(=O)N[C@@H](Cn1ccnc1)C(=O)OC(C)C | 1 µg/mL | > 16 µg/mL | > 16 µg/mL | 8 µg/mL | 1 µg/mL |  |  |  |  |  |  |  |  |  |
| CC(C)OC(=O)[C@H](Cn1ccnc1)NC(=O)c1ccc(-c2ccccc2)c(F)c1 | 0.0312 µg/mL | 2 µg/mL | 8 µg/mL | 0.5 µg/mL | 0.0312 µg/mL | 8 µg/mL | 2 µg/mL | 43.4 µM | > 50 µM | > 50 µM | > 50 µM | 4.05 µM | > 50 µM | > 50 µM |
| Cc1cc(C(=O)N[C@@H](Cn2ccnc2)C(=O)OC(C)C)ccc1-c1ccccc1 | 8 µg/mL | > 16 µg/mL | > 16 µg/mL | > 16 µg/mL | > 16 µg/mL |  |  |  |  |  |  |  |  |  |
| CC(C)COC(=O)[C@H](Cn1ccnc1)NC(=O)c1ccc(-c2ccccc2)cc1Cl | 0.25 µg/mL | > 16 µg/mL | 8 µg/mL | 4 µg/mL | 8 µg/mL |  |  |  |  |  |  |  |  |  |
| CC(C)COC(=O)[C@H](Cn1ccnc1)NC(=O)c1ccc(-c2ccccc2)c(F)c1 | 0.0312 µg/mL | 4 µg/mL | > 16 µg/mL | 0.25 µg/mL | 0.0312 µg/mL |  |  |  |  |  |  |  |  |  |
| OC(Cn1cncn1)(Cn1cncn1)c1ccc(F)cc1F [FLUCONAZOLE] | 1 µg/mL | > 16 µg/mL | 4 µg/mL | 0.5 µg/mL | 1 µg/mL | > 64 µg/mL | > 64 µg/mL |  |  |  |  |  |  |  |
| CC(C)OC(=O)[C@H](Cn1ccnc1)NC(=O)c1ccc(-c2ccccc2)cc1Cl | 0.5 µg/mL | > 16 µg/mL | 8 µg/mL | 4 µg/mL | 8 µg/mL |  |  |  |  |  |  |  |  |  |
| CC(C)OC(=O)[C@H](Cn1ccnc1)NC(=O)c1ccc(-c2ccccc2)c(Cl)c1 | 1 µg/mL | > 16 µg/mL | 8 µg/mL | 8 µg/mL | 8 µg/mL |  |  |  |  |  |  |  |  |  |
| CC(C)COC(=O)[C@H](Cn1ccnc1)NC(=O)c1c(F)cc(-c2ccccc2)cc1F | 2 µg/mL | > 16 µg/mL | > 16 µg/mL | 0.5 µg/mL | 2 µg/mL |  |  |  |  |  |  |  |  |  |
| Cc1cc(-c2ccccc2)ccc1C(=O)N[C@@H](Cn1ccnc1)C(=O)OCC(C)C | 0.5 µg/mL | > 16 µg/mL | > 16 µg/mL | > 16 µg/mL | 2 µg/mL |  |  |  |  |  |  |  |  |  |
| Cc1cc(C(=O)N[C@@H](Cn2ccnc2)C(=O)OCC(C)C)ccc1-c1ccccc1 | 4 µg/mL | > 16 µg/mL | > 16 µg/mL | > 16 µg/mL | > 16 µg/mL |  |  |  |  |  |  |  |  |  |
| CC(C)COC(=O)[C@H](Cn1ccnc1)NC(=O)c1ccc(-c2ccc(C#N)cc2)cc1F | 0.5 µg/mL | > 16 µg/mL | > 16 µg/mL | > 16 µg/mL | > 16 µg/mL |  |  |  |  |  |  |  |  |  |
| CC(C)COC(=O)[C@H](Cn1ccnc1)NC(=O)c1ccc(-c2ccccc2F)c(F)c1 | 0.0625 µg/mL | > 16 µg/mL | > 16 µg/mL | 0.25 µg/mL | 0.0625 µg/mL | 8 µg/mL | 4 µg/mL |  |  |  |  |  |  |  |
| CC(C)OC(=O)[C@H](Cn1ccnc1)NC(=O)c1ccc(-c2ccccc2)cc1F | 0.0312 µg/mL | 4 µg/mL | > 16 µg/mL | 0.25 µg/mL | 0.0312 µg/mL | 16 µg/mL | 4 µg/mL | 7.44 µM | 19.1 µM | > 50 µM | 4.49 µM | 0.0429 µM | > 50 µM | > 50 µM |
| CC(C)OC(=O)[C@H](Cn1ccnc1)NC(=O)c1ccc(-c2ccc(C#N)cc2)cc1F | 2 µg/mL | > 16 µg/mL | > 16 µg/mL | 8 µg/mL | 4 µg/mL |  |  |  |  |  |  |  |  |  |
| CC(C)OC(=O)[C@H](Cn1ccnc1)NC(=O)c1c(F)cc(-c2ccccc2)cc1F | 0.5 µg/mL | > 16 µg/mL | > 16 µg/mL | 0.5 µg/mL | 2 µg/mL |  |  |  |  |  |  |  |  |  |
| Cc1cc(-c2ccccc2)ccc1C(=O)N[C@@H](Cn1ccnc1)C(=O)OC(C)C | 0.5 µg/mL | > 16 µg/mL | > 16 µg/mL | > 16 µg/mL | 2 µg/mL |  |  |  |  |  |  |  |  |  |
| CC(C)COC(=O)[C@H](Cn1ccnc1)NC(=O)c1ccc(-c2ccccc2F)cc1F | 0.25 µg/mL | > 16 µg/mL | > 16 µg/mL | 0.5 µg/mL | 0.125 µg/mL |  |  |  |  |  |  |  |  |  |
